Numbers after ± are expanded uncertainties.
Columns and labels:
[1] = molar heat capacity at constant pressure; conditions: 323.1 K; 101.33 kPa; Crystal; Small sample (50 mg) DSC
[2] = Crystal; DTA
[3] = Molar enthalpy of transition or fusion; conditions: Crystal; DSC

## COc1ccc([C@@H]2CC(=O)c3c(O)cc(O)cc3O2)cc1O
[1]
  molar heat capacity at constant pressure: 906 ± 530 J/K/mol
[2]
  Normal melting temperature: 226.07 ± 2 °C
[3]
  Molar enthalpy of transition or fusion: 8.58 ± 0.191 kcal/mol

## O=C1CC(c2ccc(O)cc2)Oc2cc(O)cc(O)c21 (stereo not drawn) [4',5,7-trihydroxyflavanone]
[1]
  molar heat capacity at constant pressure: 259.7 ± 32 J/K/mol
[2]
  Normal melting temperature: 250.00 ± 1.2 °C
[3]
  Molar enthalpy of transition or fusion: 9.51 ± 0.239 kcal/mol

## O=c1cc(-c2ccccc2)oc2cc(O)cc(O)c12 [5,7-dihydroxyflavone]
[1]
  molar heat capacity at constant pressure: 200.6 ± 110 J/K/mol
[2]
  Normal melting temperature: 285.00 ± 2.2 °C
[3]
  Molar enthalpy of transition or fusion: 9.37 ± 0.215 kcal/mol

## O=c1c(O[C@@H]2O[C@H]([C@H](O)CO)[C@H](O)[C@H]2O)c(-c2ccc(O)c(O)c2)oc2cc(O)cc(O)c12 [isoquercitrin]
[1]
  molar heat capacity at constant pressure: 947.9 ± 30 J/K/mol
[2]
  Normal melting temperature: 198.00 ± 3 °C
[3]
  Molar enthalpy of transition or fusion: 11.9 ± 0.502 kcal/mol

## O=c1c(O)c(-c2ccc(O)c(O)c2)oc2cc(O)cc(O)c12 [quercetin]
[1]
  molar heat capacity at constant pressure: 585.9 ± 170 J/K/mol
[2]
  Normal melting temperature: 322.00 ± 1.4 °C
[3]
  Molar enthalpy of transition or fusion: 9.92 ± 0.335 kcal/mol

## C[C@@H]1O[C@@H](OC[C@H]2O[C@@H](Oc3c(-c4ccc(O)c(O)c4)oc4cc(O)cc(O)c4c3=O)[C@H](O)[C@@H](O)[C@@H]2O)[C@H](O)[C@H](O)[C@H]1O [rutin]
[1]
  molar heat capacity at constant pressure: 915 ± 160 J/K/mol
[2]
  Normal melting temperature: 177.00 ± 3 °C
[3]
  Molar enthalpy of transition or fusion: 19.7 ± 0.406 kcal/mol

Source: the NIST ThermoML archive (doi:10.1021/je7001094)
